The values below come from PubChem BioAssay AID342 (DTP/NCI, 2004).

This assay deals with Swiss mice, Sarcoma 180 sc, mean tumor weight T/C. Put plainly: NCI In Vivo Anticancer Drug Screen. Data for tumor model Sarcoma 180 (subcutaneous) in Swiss mice. The note with it: endpoint: mean tumor weight, higher = larger tumour. The method, then: The antitumor activity of compounds was measured in mice bearing transplantable tumors. Survival or tumor size were measured and the results are expressed as the measurement made in the treated group (T) divided by the measurement made in the vehicle treated control group (C). The tumor model used in this assay is Sarcoma 180 (subcutaneous) in Swiss mice

[1] abbreviates: dose: 50.0 mg/kg/injection, schedule: Q01DX007 (ip), vehicle: carboxymethylcellulose (CMC).
[2] abbreviates: dose: 200.0 mg/kg/injection, schedule: Q01DX007 (ip), vehicle: carboxymethylcellulose (CMC).
Where [3] appears, read: dose: 25.0 mg/kg/injection, schedule: Q01DX007 (ip), vehicle: carboxymethylcellulose (CMC).

Several values for one entry are separate records, joined by “and”; a condition that tells them apart may be missing. Equal entries are not always repeated.

By T/C is commonly meant the result in the treated group divided by that in the control group, in per cent. In the case of `CN1C=c2c3c(ccc2=C2C=CC4C=C5OCOC5=CC4=C21)OCO3` (centres undefined), the T/C was 105 % of control (dose: 1.3 mg/kg/injection, schedule: Q#A X014 (ip), vehicle: saline); 82 % of control (dose: 2.0 mg/kg/injection, schedule: Q#A X014 (ip), vehicle: saline); 79 % of control and 96 % of control (dose: 3.0 mg/kg/injection, schedule: Q#A X014 (ip), vehicle: saline); 28 % of control (dose: 10.0 mg/kg/injection, schedule: Q#A X014 (ip), vehicle: saline); 84 % of control (dose: 12.0 mg/kg/injection, schedule: Q#A X014 (oral), vehicle: saline); 70 % of control (dose: 18.0 mg/kg/injection, schedule: Q#A X014 (oral), vehicle: saline). Moreover, the T/C is 73 % of control (dose: 27.0 mg/kg/injection, schedule: Q#A X014 (oral), vehicle: saline) and 53 % of control (dose: 60.0 mg/kg/injection, schedule: Q#A X014 (oral), vehicle: saline).

On to `O=C(O)c1ccc(-c2ccccc2)cc1`, for which the T/C is, setting by setting: under setting [1], 95 % of control; (dose: 100.0 mg/kg/injection, schedule: Q01DX007 (ip), vehicle: carboxymethylcellulose (CMC)) 118 % of control; under setting [2], 120 % of control.

`CCOC(=O)CCc1ccc(N=NN2CCCC2)cc1`: the T/C reads like this: (dose: 225.0 mg/kg/injection, schedule: Q01DX007 (ip), vehicle: carboxymethylcellulose (CMC)) 110 % of control; (dose: 450.0 mg/kg/injection, schedule: Q01DX007 (ip), vehicle: carboxymethylcellulose (CMC)) 95 % of control.

In the case of `Nc1cc(SCc2ccccc2)nc(N)n1`, the T/C was 52 % of control (dose: 18.75 mg/kg/injection, schedule: Q#A X014 (ip), vehicle: methylcellulose (MC)); 70 % of control (dose: 37.5 mg/kg/injection, schedule: Q#A X014 (ip), vehicle: methylcellulose (MC)); 29 % of control (dose: 66.5 mg/kg/injection, schedule: Q#A X014 (ip), vehicle: methylcellulose (MC)); 68 % of control (dose: 75.0 mg/kg/injection, schedule: Q#A X014 (ip), vehicle: methylcellulose (MC)); 40 % of control (dose: 100.0 mg/kg/injection, schedule: Q#A X014 (ip), vehicle: methylcellulose (MC)); 35 % of control (dose: 225.0 mg/kg/injection, schedule: Q#A X014 (ip), vehicle: methylcellulose (MC)).

As to `COc1ccc2c(c1)CC[C@@H]1[C@@H]2CC[C@@]2(C)[C@H]1CC[C@]2(C)O`, the T/C (dose: 0.5 mg/kg/injection, schedule: Q#A X014 (sc), vehicle: steriod suspending solution) is 80 % of control; the T/C (dose: 5.0 mg/kg/injection, schedule: Q#A X014 (sc), vehicle: steriod suspending solution) was 113 % of control; the T/C (dose: 50.0 mg/kg/injection, schedule: Q#A X014 (sc), vehicle: steriod suspending solution) was 68 % of control.

As to `C[C@]12CC[C@H]3[C@@H](CC=C4C[C@@H](OC5CCCCO5)CC[C@@]43C)[C@@H]1CC[C@@H]2O` (some centres undefined), the T/C (dose: 25.0 mg/kg/injection, schedule: Q#A X014 (oral), vehicle: steriod suspending solution) is 95 % of control; the T/C (dose: 75.0 mg/kg/injection, schedule: Q#A X014 (oral), vehicle: steriod suspending solution) is 95 % of control; the T/C (dose: 187.5 mg/kg/injection, schedule: Q#A X014 (oral), vehicle: steriod suspending solution) is 80 % of control.

Take `CCOC(=O)C(Cc1ccccc1)c1ccc(Cl)cc1` (centres undefined): the T/C is 67 % of control (dose: 62.5 mg/kg/injection, schedule: Q01DX007 (ip), vehicle: methylcellulose (MC)); 75 % of control (dose: 125.0 mg/kg/injection, schedule: Q01DX007 (ip), vehicle: methylcellulose (MC)); 118 % of control (dose: 250.0 mg/kg/injection, schedule: Q01DX007 (ip), vehicle: methylcellulose (MC)).

For `Nc1ccc(C(=O)NCCCC(=O)O)cc1`, the T/C is 101 % of control (dose: 125.0 mg/kg/injection, schedule: Q01DX007 (ip), vehicle: water) and 90 % of control (dose: 500.0 mg/kg/injection, schedule: Q01DX007 (ip), vehicle: water).

As to `CC(C)CCCCCCCCCCCCC(=O)NCC(=O)NC1C(O)C(O)C(Nc2ncnc3nc[nH]c23)OC1C(O)CO` (centres undefined), the T/C was 63 % of control (dose: 0.3 mg/kg/injection, schedule: Q## X000 (ip), vehicle: carboxymethylcellulose (CMC)); 61 % of control (dose: 0.44 mg/kg/injection, schedule: Q## X000 (ip), vehicle: carboxymethylcellulose (CMC)); 58 % of control and 70 % of control (dose: 0.6 mg/kg/injection, schedule: Q01DX007 (ip), vehicle: carboxymethylcellulose (CMC)); 53 % of control (dose: 0.66 mg/kg/injection, schedule: Q## X000 (ip), vehicle: carboxymethylcellulose (CMC)); 36 % of control and 56 % of control (dose: 0.9 mg/kg/injection, schedule: Q01DX007 (ip), vehicle: carboxymethylcellulose (CMC)); 36 % of control (dose: 1.0 mg/kg/injection, schedule: Q## X000 (ip), vehicle: carboxymethylcellulose (CMC)). Besides, for the setting “dose: 1.35 mg/kg/injection, schedule: Q01DX007 (ip), vehicle: carboxymethylcellulose (CMC)”, the T/C is 82 % of control.

For `c1ccc2cc3c(cc2c1)Cn1c-3nc2ccccc21`, the T/C under setting [3] is 76 % of control; the T/C under setting [1] is 86 % of control; the T/C under setting [2] was 53 % of control and 57 % of control; the T/C (dose: 400.0 mg/kg/injection, schedule: Q01DX007 (ip), vehicle: carboxymethylcellulose (CMC)) was 54 % of control; the T/C (dose: 500.0 mg/kg/injection, schedule: Q01DX007 (ip), vehicle: carboxymethylcellulose (CMC)) was 27 % of control and 34 % of control; the T/C (dose: 800.0 mg/kg/injection, schedule: Q01DX007 (ip), vehicle: carboxymethylcellulose (CMC)) is 38 % of control.

For `COS(C)(=O)=O`, the T/C is, setting by setting: under setting [3], 89 % of control; under setting [1], 66 % of control.

`O=c1[nH]c(=O)n(C2CC(O)C(CO)O2)cc1F` (centres undefined): the T/C was 97 % of control (dose: 2.0 mg/kg/injection, schedule: Q01DX007 (ip), vehicle: carboxymethylcellulose (CMC)); 108 % of control (dose: 4.0 mg/kg/injection, schedule: Q01DX007 (ip), vehicle: carboxymethylcellulose (CMC)); 97 % of control (dose: 8.0 mg/kg/injection, schedule: Q01DX007 (ip), vehicle: carboxymethylcellulose (CMC)); 27 % of control (dose: 10.0 mg/kg/injection, schedule: Q#A X014 (ip), vehicle: carboxymethylcellulose (CMC)); 28 % of control (dose: 12.5 mg/kg/injection, schedule: Q#A X014 (ip), vehicle: carboxymethylcellulose (CMC)); 94 % of control (dose: 16.0 mg/kg/injection, schedule: Q01DX007 (ip), vehicle: carboxymethylcellulose (CMC)). In addition, the T/C is 119 % of control (dose: 20.0 mg/kg/injection, schedule: Q01DX007 (ip), vehicle: saline); 14 % of control (dose: 20.0 mg/kg/injection, schedule: Q#A X014 (ip), vehicle: carboxymethylcellulose (CMC)); 10 % of control (dose: 25.0 mg/kg/injection, schedule: Q#A X014 (ip), vehicle: carboxymethylcellulose (CMC)); 86 % of control (dose: 40.0 mg/kg/injection, schedule: Q01DX007 (ip), vehicle: saline); 4 % of control (dose: 40.0 mg/kg/injection, schedule: Q#A X014 (ip), vehicle: carboxymethylcellulose (CMC)); 29 % of control (dose: 80.0 mg/kg/injection, schedule: Q01DX007 (ip), vehicle: carboxymethylcellulose (CMC)). Also, the T/C was 109 % of control (dose: 80.0 mg/kg/injection, schedule: Q01DX007 (ip), vehicle: saline); 15 % of control (dose: 80.0 mg/kg/injection, schedule: Q#A X014 (ip), vehicle: carboxymethylcellulose (CMC)); 7 % of control (dose: 106.6 mg/kg/injection, schedule: Q01DX007 (ip), vehicle: carboxymethylcellulose (CMC)); 8 % of control (dose: 128.0 mg/kg/injection, schedule: Q01DX007 (ip), vehicle: carboxymethylcellulose (CMC)); 5 % of control (dose: 160.0 mg/kg/injection, schedule: Q01DX007 (ip), vehicle: carboxymethylcellulose (CMC)); 56 % of control (dose: 160.0 mg/kg/injection, schedule: Q01DX007 (ip), vehicle: saline).

Take `CC(=O)[C@H]1CC[C@H]2[C@@H]3CCC4=CC(=O)[C@H](C)C[C@]4(C)[C@H]3C(=O)C[C@]12C`: the T/C is 97 % of control (dose: 50.0 mg/kg/injection, schedule: Q#A X014 (oral), vehicle: steriod suspending solution); 68 % of control (dose: 125.0 mg/kg/injection, schedule: Q#A X014 (oral), vehicle: steriod suspending solution); 63 % of control (dose: 250.0 mg/kg/injection, schedule: Q#A X014 (oral), vehicle: steriod suspending solution).

`NC(Cc1cc(I)c(Oc2ccc(O)c(I)c2)c(I)c1)C(=O)O` (centres undefined): the T/C is 103 % of control (dose: 0.1 micrograms/kg/injection, schedule: Q01DX007 (sc), vehicle: steriod suspending solution); 95 % of control (dose: 1.0 micrograms/kg/injection, schedule: Q01DX007 (sc), vehicle: steriod suspending solution); 156 % of control (dose: 10.0 micrograms/kg/injection, schedule: Q01DX007 (sc), vehicle: steriod suspending solution).
